Values quoted from earlier work in paper PMC8226449, “In Vitro Evaluation of the Squaramide-Conjugated Fibroblast Activation Protein Inhibitor-Based Agents AAZTA^5.SA.FAPi and DOTA.SA.FAPi” (Molecules, 2021).

Parameters: method as in PMID 32332144
Conditions: reported in the literature; cited from earlier work

SMILES: N#C[C@@H]1CC(F)(F)CN1C(=O)CNC(=O)c1ccnc2ccc(OCCCN3CCN(C(=O)CN4CCN(CC(=O)O)CCN(CC(=O)O)CCN(CC(=O)O)CC4)CC3)cc12 (68Ga complex, metal not drawn) [FAPI-04]
- logD: −2.4 ± 0.28
